In ChEMBL document CHEMBL5465560, “Selectivity Literature for EUbOPEN Chemogenomic Library” (2024):

Tests used:
[1] = molecular target: T1, Histone-lysine N-methyltransferase SUV39H1 (Homo sapiens) (UniProt O43463); assay: Selectivity interaction (Methyltransferase screen (Scintillation proximity assays)) EUB0000255b SUV39H1
T1 sequence (whole entry): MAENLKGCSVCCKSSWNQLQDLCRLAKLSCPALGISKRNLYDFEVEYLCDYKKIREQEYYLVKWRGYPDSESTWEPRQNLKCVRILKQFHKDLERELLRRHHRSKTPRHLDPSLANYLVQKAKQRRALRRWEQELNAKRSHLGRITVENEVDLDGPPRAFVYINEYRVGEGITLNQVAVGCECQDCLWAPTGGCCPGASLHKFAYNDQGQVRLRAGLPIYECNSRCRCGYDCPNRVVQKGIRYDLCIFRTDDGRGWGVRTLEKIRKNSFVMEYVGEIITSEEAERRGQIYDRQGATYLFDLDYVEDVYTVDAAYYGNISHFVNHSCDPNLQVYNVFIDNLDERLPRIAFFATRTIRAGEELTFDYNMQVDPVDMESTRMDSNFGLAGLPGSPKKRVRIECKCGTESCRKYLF

[2] = molecular target: Mitogen-activated protein kinase kinase kinase kinase 4 (Homo sapiens, UniProt O95819); assay: Selectivity interaction (KinomeScan (DiscoverX)) EUB0001079a MAP4K4; details: at 1 µM
[3] = molecular target: Mitogen-activated protein kinase 3 (Homo sapiens, UniProt P27361); assay: Selectivity interaction (SelectScreen profiling (Invitrogen)) EUB0000607a MAPK3; details: at 2 µM
[4] = molecular target: TRAF2 and NCK-interacting protein kinase (Homo sapiens) (UniProt Q9UKE5); assay: Selectivity interaction (KinomeScan (DiscoverX)) EUB0000607a TNIK; details: at 10 µM
[5] = molecular target: Dual specificity mitogen-activated protein kinase kinase 2 (Homo sapiens) (UniProt P36507); assay: Selectivity interaction (KinomeScan (DiscoverX)) EUB0001619a MAP2K2; details: at 1 µM
[6] = molecular target: Mitogen-activated protein kinase 11 (Homo sapiens) (UniProt Q15759); assay: Selectivity interaction (KinomeScan (DiscoverX)) EUB0001619a MAPK11; details: at 1 µM
Mitogen-activated protein kinase 11 (Homo sapiens), sequence (Q15759 whole entry): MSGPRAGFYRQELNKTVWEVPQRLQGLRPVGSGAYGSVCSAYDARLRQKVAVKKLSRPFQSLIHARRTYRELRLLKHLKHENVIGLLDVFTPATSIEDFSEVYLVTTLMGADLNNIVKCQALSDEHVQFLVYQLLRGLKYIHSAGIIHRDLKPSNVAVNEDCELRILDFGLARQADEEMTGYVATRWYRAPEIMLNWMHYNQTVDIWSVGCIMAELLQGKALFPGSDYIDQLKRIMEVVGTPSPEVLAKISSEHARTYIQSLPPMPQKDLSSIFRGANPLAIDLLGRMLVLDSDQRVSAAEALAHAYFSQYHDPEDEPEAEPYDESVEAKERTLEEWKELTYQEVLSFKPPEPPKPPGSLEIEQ

[7] = Selectivity interaction (KinomeScan (DiscoverX)) EUB0000595a PKNB; details: at 10 µM
[8] = molecular target: Vascular endothelial growth factor receptor 1 (Homo sapiens) (UniProt P17948); details: at 10 µM
Vascular endothelial growth factor receptor 1 (Homo sapiens), sequence (P17948 whole entry): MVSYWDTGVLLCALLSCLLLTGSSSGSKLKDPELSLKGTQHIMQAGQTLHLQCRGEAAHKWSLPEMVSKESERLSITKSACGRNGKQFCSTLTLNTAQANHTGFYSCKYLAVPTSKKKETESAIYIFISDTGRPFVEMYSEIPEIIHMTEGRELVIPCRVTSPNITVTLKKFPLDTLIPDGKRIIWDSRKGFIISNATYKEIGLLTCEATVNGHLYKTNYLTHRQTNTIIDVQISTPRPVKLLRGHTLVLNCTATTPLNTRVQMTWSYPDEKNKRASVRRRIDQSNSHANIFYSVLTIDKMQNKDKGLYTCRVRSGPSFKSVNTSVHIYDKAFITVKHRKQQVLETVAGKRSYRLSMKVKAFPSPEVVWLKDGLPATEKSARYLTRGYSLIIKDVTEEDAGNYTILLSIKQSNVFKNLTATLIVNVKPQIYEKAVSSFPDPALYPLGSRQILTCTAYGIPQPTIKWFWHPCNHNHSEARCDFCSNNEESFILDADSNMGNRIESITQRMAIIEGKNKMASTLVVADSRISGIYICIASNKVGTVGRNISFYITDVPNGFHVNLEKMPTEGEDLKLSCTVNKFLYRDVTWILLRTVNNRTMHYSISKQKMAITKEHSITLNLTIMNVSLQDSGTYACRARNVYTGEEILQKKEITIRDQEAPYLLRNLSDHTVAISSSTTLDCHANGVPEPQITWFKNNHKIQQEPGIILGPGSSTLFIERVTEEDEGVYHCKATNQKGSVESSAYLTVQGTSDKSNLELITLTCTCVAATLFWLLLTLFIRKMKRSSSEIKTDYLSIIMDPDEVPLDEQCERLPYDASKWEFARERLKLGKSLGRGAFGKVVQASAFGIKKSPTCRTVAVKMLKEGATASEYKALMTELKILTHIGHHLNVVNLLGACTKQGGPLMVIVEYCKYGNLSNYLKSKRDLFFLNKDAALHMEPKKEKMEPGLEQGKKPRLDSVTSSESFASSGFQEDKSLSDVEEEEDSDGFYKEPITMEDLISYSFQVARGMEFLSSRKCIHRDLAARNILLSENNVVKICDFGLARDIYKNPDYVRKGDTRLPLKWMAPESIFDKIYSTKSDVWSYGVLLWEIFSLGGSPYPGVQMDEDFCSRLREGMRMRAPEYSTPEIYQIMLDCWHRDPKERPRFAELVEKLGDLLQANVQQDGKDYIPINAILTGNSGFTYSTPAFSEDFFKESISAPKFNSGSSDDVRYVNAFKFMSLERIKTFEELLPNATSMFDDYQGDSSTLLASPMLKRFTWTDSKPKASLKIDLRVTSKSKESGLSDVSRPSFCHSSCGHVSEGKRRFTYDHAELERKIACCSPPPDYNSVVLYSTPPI

[9] = molecular target: Vascular endothelial growth factor receptor 2 (Homo sapiens, UniProt P35968); assay: Selectivity interaction (Upstate Kinase Profiler service (Millipore)) EUB0000056c KDR; details: at 1 µM
[10] = molecular target: Tyrosine-protein kinase Fes/Fps (Homo sapiens) (UniProt P07332); details: at 10 µM
Tyrosine-protein kinase Fes/Fps (Homo sapiens), sequence (P07332 whole entry): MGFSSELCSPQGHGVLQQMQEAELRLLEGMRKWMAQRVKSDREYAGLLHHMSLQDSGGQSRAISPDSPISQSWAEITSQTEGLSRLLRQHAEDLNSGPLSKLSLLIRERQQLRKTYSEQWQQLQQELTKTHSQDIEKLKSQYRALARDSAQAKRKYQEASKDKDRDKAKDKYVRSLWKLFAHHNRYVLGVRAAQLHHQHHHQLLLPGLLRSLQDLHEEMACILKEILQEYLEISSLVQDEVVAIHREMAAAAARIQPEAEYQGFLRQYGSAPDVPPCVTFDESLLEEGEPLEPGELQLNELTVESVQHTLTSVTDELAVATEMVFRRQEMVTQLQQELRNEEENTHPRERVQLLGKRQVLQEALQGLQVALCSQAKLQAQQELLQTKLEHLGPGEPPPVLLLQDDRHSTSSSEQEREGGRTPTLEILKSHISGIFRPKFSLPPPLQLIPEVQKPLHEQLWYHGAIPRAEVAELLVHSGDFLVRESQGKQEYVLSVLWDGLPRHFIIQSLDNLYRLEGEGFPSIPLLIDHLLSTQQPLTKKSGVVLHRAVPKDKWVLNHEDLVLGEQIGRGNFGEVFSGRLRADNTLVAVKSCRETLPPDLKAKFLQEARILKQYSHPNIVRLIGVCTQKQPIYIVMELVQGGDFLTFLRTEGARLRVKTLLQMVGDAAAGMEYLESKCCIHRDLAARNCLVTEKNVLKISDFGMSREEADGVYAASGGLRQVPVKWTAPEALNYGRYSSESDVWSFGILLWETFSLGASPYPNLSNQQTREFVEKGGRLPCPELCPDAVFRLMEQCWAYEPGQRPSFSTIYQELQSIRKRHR

[11] = molecular target: T2, Dual specificity mitogen-activated protein kinase kinase 3 (Homo sapiens) (UniProt P46734); assay: Selectivity interaction (Kinase panel (Invitrogen)) EUB0000639a MAP2K3; details: at 200 nM
T2 sequence (whole entry): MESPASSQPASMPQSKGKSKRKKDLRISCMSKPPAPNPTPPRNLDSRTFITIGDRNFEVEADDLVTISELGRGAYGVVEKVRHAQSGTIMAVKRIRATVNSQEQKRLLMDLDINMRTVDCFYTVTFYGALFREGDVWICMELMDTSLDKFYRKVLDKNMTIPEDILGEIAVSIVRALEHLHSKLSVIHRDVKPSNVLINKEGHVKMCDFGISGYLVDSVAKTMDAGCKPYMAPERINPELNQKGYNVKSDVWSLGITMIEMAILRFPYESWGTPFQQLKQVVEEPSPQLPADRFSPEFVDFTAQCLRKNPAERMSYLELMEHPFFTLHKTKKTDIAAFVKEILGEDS

[12] = molecular target: T3, Phosphatidylinositol 4,5-bisphosphate 3-kinase catalytic subunit delta isoform (Homo sapiens) (UniProt O00329); assay: Selectivity interaction (ActivX KiNativ screen (kinase selectivity in THP-1 cell lysates)) EUB0000639a PIK3CD; format: subcellular; details: lysate, at 0.2 µM
T3 sequence (whole entry): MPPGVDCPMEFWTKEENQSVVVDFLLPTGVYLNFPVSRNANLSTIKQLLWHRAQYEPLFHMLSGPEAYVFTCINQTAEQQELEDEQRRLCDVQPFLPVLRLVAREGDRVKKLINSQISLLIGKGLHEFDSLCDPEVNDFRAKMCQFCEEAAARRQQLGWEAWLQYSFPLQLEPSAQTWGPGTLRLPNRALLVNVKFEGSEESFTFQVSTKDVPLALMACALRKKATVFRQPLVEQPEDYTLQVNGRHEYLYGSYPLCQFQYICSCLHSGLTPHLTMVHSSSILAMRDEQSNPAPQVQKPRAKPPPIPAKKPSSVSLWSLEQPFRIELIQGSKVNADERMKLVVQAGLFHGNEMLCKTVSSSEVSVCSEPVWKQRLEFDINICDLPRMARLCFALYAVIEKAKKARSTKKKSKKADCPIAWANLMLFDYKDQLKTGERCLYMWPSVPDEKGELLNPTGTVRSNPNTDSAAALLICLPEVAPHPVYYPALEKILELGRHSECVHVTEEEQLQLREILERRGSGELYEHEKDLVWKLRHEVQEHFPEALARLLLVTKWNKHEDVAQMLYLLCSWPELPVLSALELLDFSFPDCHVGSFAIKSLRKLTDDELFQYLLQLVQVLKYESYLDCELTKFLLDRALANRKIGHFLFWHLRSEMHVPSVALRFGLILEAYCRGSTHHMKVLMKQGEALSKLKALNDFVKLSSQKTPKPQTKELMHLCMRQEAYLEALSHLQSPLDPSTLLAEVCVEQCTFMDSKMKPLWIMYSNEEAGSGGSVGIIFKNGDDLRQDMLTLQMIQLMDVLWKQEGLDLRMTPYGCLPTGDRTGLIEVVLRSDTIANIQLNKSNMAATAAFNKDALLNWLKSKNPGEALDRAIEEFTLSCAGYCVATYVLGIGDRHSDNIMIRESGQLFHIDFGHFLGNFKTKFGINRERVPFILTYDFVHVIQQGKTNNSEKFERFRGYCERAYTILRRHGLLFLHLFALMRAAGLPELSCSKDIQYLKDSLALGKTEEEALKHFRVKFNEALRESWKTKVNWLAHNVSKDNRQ

[13] = molecular target: Mitotic checkpoint serine/threonine-protein kinase BUB1 (Homo sapiens, UniProt O43683)
Mitotic checkpoint serine/threonine-protein kinase BUB1, sequence (O43683 whole entry): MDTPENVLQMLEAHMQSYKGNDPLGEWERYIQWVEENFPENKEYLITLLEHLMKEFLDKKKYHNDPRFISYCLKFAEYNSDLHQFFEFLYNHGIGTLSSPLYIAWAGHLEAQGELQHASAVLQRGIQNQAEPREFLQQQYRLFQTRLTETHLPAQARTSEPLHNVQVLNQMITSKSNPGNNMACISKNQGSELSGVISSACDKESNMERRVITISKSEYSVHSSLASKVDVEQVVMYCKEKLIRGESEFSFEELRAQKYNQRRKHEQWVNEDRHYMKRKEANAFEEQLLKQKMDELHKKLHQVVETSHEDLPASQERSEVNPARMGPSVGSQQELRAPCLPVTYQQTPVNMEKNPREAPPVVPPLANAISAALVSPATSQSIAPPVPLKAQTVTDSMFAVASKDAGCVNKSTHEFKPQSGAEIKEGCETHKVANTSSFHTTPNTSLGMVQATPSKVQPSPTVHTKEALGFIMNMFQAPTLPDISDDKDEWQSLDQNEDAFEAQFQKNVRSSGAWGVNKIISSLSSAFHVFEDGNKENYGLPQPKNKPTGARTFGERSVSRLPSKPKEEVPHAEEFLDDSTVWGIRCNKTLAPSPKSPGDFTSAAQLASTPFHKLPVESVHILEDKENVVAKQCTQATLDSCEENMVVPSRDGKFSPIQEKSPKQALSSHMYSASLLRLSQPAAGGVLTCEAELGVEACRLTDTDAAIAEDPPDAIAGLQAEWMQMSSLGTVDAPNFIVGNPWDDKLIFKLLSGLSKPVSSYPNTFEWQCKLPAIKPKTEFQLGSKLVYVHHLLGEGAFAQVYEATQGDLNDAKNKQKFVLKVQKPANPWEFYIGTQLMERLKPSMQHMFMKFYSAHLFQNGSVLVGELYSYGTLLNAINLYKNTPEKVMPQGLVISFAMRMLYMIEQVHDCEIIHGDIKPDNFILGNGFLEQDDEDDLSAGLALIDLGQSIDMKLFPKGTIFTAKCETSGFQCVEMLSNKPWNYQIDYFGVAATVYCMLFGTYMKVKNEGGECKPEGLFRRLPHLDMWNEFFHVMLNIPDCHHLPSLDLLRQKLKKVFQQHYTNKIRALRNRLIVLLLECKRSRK

[14] = molecular target: CDK8/Cyclin C (Homo sapiens) (UniProt P49336+P24863); assay: Selectivity interaction (LanthaScreen Eu Kinase Binding Assay) EUB0001632a CDK8; format: protein-complex assay; details: at 10 µM
[15] = molecular target: Serine/threonine-protein kinase SIK1 (Homo sapiens) (UniProt P57059); assay: Selectivity interaction (LanthaScreen Eu Kinase Binding Assay) EUB0001632a SIK1; details: at 10 µM
Serine/threonine-protein kinase SIK1 (Homo sapiens), sequence (P57059 whole entry): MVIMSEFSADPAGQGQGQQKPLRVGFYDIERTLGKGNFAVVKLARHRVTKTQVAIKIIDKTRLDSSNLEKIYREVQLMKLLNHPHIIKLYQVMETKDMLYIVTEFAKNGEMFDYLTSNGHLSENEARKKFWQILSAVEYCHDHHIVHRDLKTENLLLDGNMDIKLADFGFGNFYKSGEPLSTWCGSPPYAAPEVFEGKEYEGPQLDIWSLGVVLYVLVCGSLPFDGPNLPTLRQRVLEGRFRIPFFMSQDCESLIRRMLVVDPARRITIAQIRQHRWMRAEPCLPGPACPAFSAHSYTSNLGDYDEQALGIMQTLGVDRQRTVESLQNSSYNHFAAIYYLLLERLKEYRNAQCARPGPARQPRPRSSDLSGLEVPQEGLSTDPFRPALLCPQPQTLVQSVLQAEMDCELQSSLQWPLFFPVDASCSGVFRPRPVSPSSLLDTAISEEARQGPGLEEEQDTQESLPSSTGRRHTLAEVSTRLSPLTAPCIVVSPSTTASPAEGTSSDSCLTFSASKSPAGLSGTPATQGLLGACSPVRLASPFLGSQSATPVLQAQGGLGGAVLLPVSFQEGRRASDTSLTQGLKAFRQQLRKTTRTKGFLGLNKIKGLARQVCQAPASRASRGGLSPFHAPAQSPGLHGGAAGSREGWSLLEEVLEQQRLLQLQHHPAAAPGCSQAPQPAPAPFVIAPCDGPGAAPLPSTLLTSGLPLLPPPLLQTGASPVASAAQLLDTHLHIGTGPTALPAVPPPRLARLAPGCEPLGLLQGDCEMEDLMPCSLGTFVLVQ

[16] = molecular target: Dual specificity testis-specific protein kinase 1 (Homo sapiens) (UniProt Q15569); assay: Selectivity interaction (KinomeScan (DiscoverX)) EUB0000695a TESK1; details: at 100 nM
Dual specificity testis-specific protein kinase 1 (Homo sapiens), sequence (Q15569 whole entry, looked up): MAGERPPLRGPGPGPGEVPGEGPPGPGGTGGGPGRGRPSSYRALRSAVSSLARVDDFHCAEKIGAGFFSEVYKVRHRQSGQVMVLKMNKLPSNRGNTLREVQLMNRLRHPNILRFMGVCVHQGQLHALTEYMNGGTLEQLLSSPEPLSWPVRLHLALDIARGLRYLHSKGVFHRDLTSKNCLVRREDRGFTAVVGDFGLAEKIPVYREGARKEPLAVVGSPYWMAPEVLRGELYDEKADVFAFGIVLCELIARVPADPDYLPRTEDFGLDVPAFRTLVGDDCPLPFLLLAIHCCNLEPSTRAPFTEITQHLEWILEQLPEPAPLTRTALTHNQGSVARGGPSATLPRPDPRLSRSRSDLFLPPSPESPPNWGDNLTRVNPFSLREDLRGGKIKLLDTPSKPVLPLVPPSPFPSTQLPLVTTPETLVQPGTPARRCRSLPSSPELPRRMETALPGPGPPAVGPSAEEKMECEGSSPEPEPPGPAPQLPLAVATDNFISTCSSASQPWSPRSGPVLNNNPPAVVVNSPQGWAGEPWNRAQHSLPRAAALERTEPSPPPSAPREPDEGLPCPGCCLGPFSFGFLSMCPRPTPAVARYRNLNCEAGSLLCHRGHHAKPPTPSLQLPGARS

Q: Which % activity ([1]; at 1 µM) does the source give for COCCN1CCC(c2cc(CN(C)C(=O)c3cccc(Oc4ccccc4)c3)ccn2)CC1 here?
A: Its % activity is greater than 95%.

Q: And the % activity ([1]; at 10 µM)?
A: The % activity was greater than 90%.

Q: With Nc1cnc(N2CCc3cc(S(=O)(=O)Nc4c(F)cc(Cl)cc4F)cc(N4CCCC4=O)c32)nc1 [TP-020n] as the compound, how does the % of control [2] read?
A: Its % of control is 61%.

Q: With CNC(=O)Nc1ccc(-c2nc(N3CC4CCC(C3)O4)c3cnn(C4CCC5(CC4)OCCO5)c3n2)cc1 as the compound, how does the % of inhibition [3] read?
A: The % of inhibition was 1%.

Q: And the % of control [4]?
A: Its % of control is 100%.

Q: Which % of control [5] does the source give for N#Cc1cccc(-c2c[nH]c3ncnc(N4CCOCC4)c23)c1 here?
A: Its % of control is 19%.

Q: What about the % of control [6] of the same compound?
A: Its % of control is 100%.

Q: What does the source list for COCC(=O)NC/C=C/c1ccc2ncnc(Nc3ccc(Oc4ccc(C)nc4)c(C)c3)c2c1 [CP-724714]?
A: % of control [7]: 23%; % of control [8]: 88%

Q: Which % of inhibition [9] does the source give for Cc1ccc(-c2ccc3c(ccc4sc5c(c43)NC[C@@H](C)NC5=O)n2)cn1 here?
A: The % of inhibition was 32%.

Q: For Cc1cc([C@@H](C)Nc2ccccc2C(=O)O)c2nc(N3CCOCC3)cc(=O)n2c1 [AZD-6482], which % of control [10] is on record?
A: The % of control was 94%.

Q: Which % of inhibition [11] does the source give for CC[C@@H]1[C@H](F)C(=O)N[C@@H]1COc1nccc2cc(C(N)=O)c(OC)cc12 [ZIMLOVISERTIB] here?
A: The % of inhibition was 0.853%.

Q: And the % of inhibition [12]?
A: Its % of inhibition is 4.7%.

Q: With CCc1cccc(CC)c1NC(=O)c1nn(C)c2c1CCc1cnc(Nc3ccc(C(=O)NC4CCN(C)CC4)cc3OC(F)(F)F)nc1-2 as the compound, how does the IC50 [13] read?
A: The IC50 was greater than 10 µM.

Q: Which % of inhibition [14] does the source give for Cn1cc(-n2cnc3c(NCc4nc5cc(Cl)c(Cl)cc5[nH]4)nc(N4CCOCC4)nc32)cn1 here?
A: The % of inhibition was 17.1%.

Q: And the % of inhibition [15]?
A: Its % of inhibition is -0.976%.

Q: Which % of control [16] does the source give for Cc1cc(F)c(C(=O)Nc2cccc(-c3nncn3C(C)C)n2)cc1-n1cnc(C2CC2)c1 here?
A: Its % of control is 85%.
